System: diarrhea-predominant IBS subjects
Assay: Study S241.3.011: weekly diary questions on adequate relief
Type: in vivo, human
Details: for Overall responder rate, adequate relief of IBS symptoms / Overall responder rate, adequate relief of abdominal pain/discomfort / Overall responder rate, adequate relief of abnormal bowel habits: observed case
Experimental: Study S241.3.011 was a Phase III, double-blind, placebo-controlled, randomized, multinational study to investigate the safety and efficacy of 2 mg TID of cilansetron for a period of 12 weeks followed by a rerandomized, placebo-controlled four-week treatment period, in diarrhea-predominant IBS subjects. The study was conducted in six countries including the US. A total of 2115 subjects consented to participate, and 770 subjects were randomized. A total of 746 subjects were analyzed for efficacy and 755 subjects were analyzed for safety. Diagnosis and main criteria for inclusion were IBS subjects satisfying the Rome I criteria (1992); the diarrhea predominant sub-population of the Rome II criteria; and a minimum abdominal pain/discomfort, stool frequency and consistency determined during the run-in period. Subjects were treated with cilansetron 2 mg tablets given orally TID or matching placebo tablets given orally TID for 12 weeks followed by a rerandomized, placebo-controlled four-week treatment period.
The primary efficacy parameter was the number of months that a subject was a responder for IBS symptoms (abdominal pain, abdominal discomfort, abnormal bowel habits) over the 12-week treatment period. A responder for a month (monthly responder) was defined as a subject who answered the weekly question with “yes” at least twice for that month. The two main secondary efficacy parameters were the monthly responder rates based on the “adequate relief” questions regarding abdominal pain/discomfort and abnormal bowel habits during the 12-week treatment period. The overall response rate and responder rate for the weekly diary questions on adequate relief at each month and all months, the adequate relief rate, the number of subjects with adequate relief by week, daily diary questions, IBS-QOL scores, and the interruption of activities were also assessed. Safety was evaluated by physical examination, ECG, vital signs, laboratory evaluations, concomitant medications, and AEs.
Subjects who were initially randomized to the cilansetron 2 mg TID group and rerandomized to placebo, will be referred to as the C/P treatment group; subjects initially randomized to the placebo group and rerandomized to placebo will be referred to as the P/P treatment group; the P/C and C/C treatment group nomenclature follow the same principle. Of the 591 subjects who completed the three-month treatment period, 576 subjects were rerandomized and thus divided into the following treatment groups: 150 subjects in the C/C treatment group, 140 subjects in the C/P treatment group, 136 subjects in the P/C treatment group, and 150 subjects in the P/P treatment group. Of the 576 subjects rerandomized, a higher percentage of subjects in the C/C treatment group (99%) completed the study compared with the C/P (95%), P/C (93%), and the P/P (95%) treatment groups.
Studies S24 1.3.OO6, S24 1.3.0 1 1, and S24 1.3.009 used the following efficacy measurements: • The subjects answered the following three questions with “yes” or “no” using a phone diary at the end of each week: • a) During the last week, did you experience adequate relief of your IBS symptoms, such as abdominal pain, abdominal discomfort, abnormal bowel habits? • b) During the last week, did you experience adequate relief of your abdominal pain and/or discomfort? • c) During the last week, did you experience adequate relief of your abnormal bowel habits? • The subjects rated the following symptoms using the phone diary at the end of each day: • abdominal pain/discomfort (five-point scale); • stool consistency (seven-point Bristol Stool Scale); • stool frequency (number of bowel movements each day); • urgency (five-point scale); • straining (yes or no); • feeling of incomplete defecation (yes or no); • bloating or feeling of abdominal distension (five-point scale). • In Studies S241 A006 and S241.3.009, subjects completed the IBS-QOL Survey at Baseline (Day 1) and at the end of treatment. […]

[1] = Female subjects, three-month treatment period, monthly LOCF, ITT, 2 mg TID
[2] = Female subjects, three-month treatment period, ITT, 2 mg TID
[3] = Male subjects, three-month treatment period, monthly LOCF, ITT, 2 mg TID
[4] = Male subjects, three-month treatment period, ITT, 2 mg TID
[5] = RR Group C/C (cilansetron 2 mg TID, rerandomized to cilansetron)
[6] = RR Group C/P (cilansetron 2 mg TID, rerandomized to placebo)

Cc1nccn1C[C@H]1CCc2c(c3cccc4c3n2CCC4)C1=O [Cilansetron, (R)-(−)-4,5,6,8,9,10-hexahydro-10-[(2-methyl-1H-imidazol-1-yl)methyl]-11H-pyrido-[3,2,1-jk]-carbazol-11-one]
Number of months a subject was a responder: Three months (Abnormal bowel habits) [1]: 101 (39) n (%) | Number of months a subject was a responder: Three months (IBS symptoms) [1]: 96 (37) n (%) | Number of months a subject was a responder: Two months (Abdominal pain/discomfort) [1]: 57 (22) n (%) | Number of months a subject was a responder: Two months (Abnormal bowel habits) [1]: 48 (18) n (%) | Number of months a subject was a responder: Two months (IBS symptoms) [1]: 52 (20) n (%) | Number of months a subject was a responder: Zero months (Abdominal pain/discomfort) [1]: 74 (28) n (%) | Number of months a subject was a responder: Zero months (Abnormal bowel habits) [1]: 79 (30) n (%) | Number of months a subject was a responder: Zero months (IBS symptoms) [1]: 79 (30) n (%) | Overall responder rate, adequate relief of IBS symptoms [2]: 138 (53) n (%) | Overall responder rate, adequate relief of abdominal pain/discomfort [2]: 151 (58) n (%) | Overall responder rate, adequate relief of abnormal bowel habits [2]: 140 (53) n (%) | Number of months a subject was a responder: One month (Abdominal pain/discomfort) [3]: 15 (13) n (%) | Number of months a subject was a responder: One month (Abnormal bowel habits) [3]: 16 (14) n (%) | Number of months a subject was a responder: One month (IBS symptoms) [3]: 19 (17) n (%) | Number of months a subject was a responder: Three months (Abdominal pain/discomfort) [3]: 58 (50) n (%) | Number of months a subject was a responder: Three months (Abnormal bowel habits) [3]: 48 (42) n (%) | Number of months a subject was a responder: Three months (IBS symptoms) [3]: 52 (45) n (%) | Number of months a subject was a responder: Two months (Abdominal pain/discomfort) [3]: 15 (13) n (%) | Number of months a subject was a responder: Two months (Abnormal bowel habits) [3]: 18 (16) n (%) | Number of months a subject was a responder: Two months (IBS symptoms) [3]: 18 (16) n (%) | Number of months a subject was a responder: Zero months (Abdominal pain/discomfort) [3]: 27 (23) n (%) | Number of months a subject was a responder: Zero months (Abnormal bowel habits) [3]: 33 (29) n (%) | Number of months a subject was a responder: Zero months (IBS symptoms) [3]: 26 (23) n (%) | Overall responder rate, adequate relief of IBS symptoms [4]: 68 (59) n (%) | Overall responder rate, adequate relief of abdominal pain/discomfort [4]: 70 (61) n (%) | Overall responder rate, adequate relief of abnormal bowel habits [4]: 63 (55) n (%) | Responder rate, abdominal pain/discomfort (Peru): 69% | Responder rate, abnormal bowel habits (Peru): 75% | Δ Month 4 vs Month 3, responder rate, Adequate Relief of Abdominal Pain/Discomfort (RR Group C/C): 0% | Δ Month 4 vs Month 3, responder rate, Adequate Relief of Abnormal Bowel Habits (RR Group C/C): +2% | Δ Month 4 vs Month 3, responder rate, Adequate Relief of IBS Symptoms (RR Group C/C): +3% | Monthly responder rate, Adequate Relief of Abdominal Pain/Discomfort, Month 3 [5]: 70% | Monthly responder rate, Adequate Relief of Abdominal Pain/Discomfort, Month 4 [5]: 70% | Monthly responder rate, Adequate Relief of Abnormal Bowel Habits, Month 3 [5]: 68% | Monthly responder rate, Adequate Relief of Abnormal Bowel Habits, Month 4 [5]: 70% | Monthly responder rate, Adequate Relief of IBS Symptoms, Month 3 [5]: 66% | Monthly responder rate, Adequate Relief of IBS Symptoms, Month 4 [5]: 69% | Δ Month 4 vs Month 3, responder rate, Adequate Relief of Abdominal Pain/Discomfort (RR Group C/P): −16% | Δ Month 4 vs Month 3, responder rate, Adequate Relief of Abnormal Bowel Habits (RR Group C/P): −18% | Δ Month 4 vs Month 3, responder rate, Adequate Relief of IBS Symptoms (RR Group C/P): −22% | Monthly responder rate, Adequate Relief of Abdominal Pain/Discomfort, Month 3 [6]: 66% | Monthly responder rate, Adequate Relief of Abdominal Pain/Discomfort, Month 4 [6]: 50% | Monthly responder rate, Adequate Relief of Abnormal Bowel Habits, Month 3 [6]: 60% | Monthly responder rate, Adequate Relief of Abnormal Bowel Habits, Month 4 [6]: 42% | Monthly responder rate, Adequate Relief of IBS Symptoms, Month 3 [6]: 61% | Monthly responder rate, Adequate Relief of IBS Symptoms, Month 4 [6]: 39% | Overall responder rate, IBS symptoms (entire four months, C/C group): 66% | Overall responder rate, abdominal pain/discomfort (entire four months, C/C group): 70% | Overall responder rate, abnormal bowel habits (entire four months, C/C group): 69% | Overall responder rate, IBS symptoms (females): 53% | Overall responder rate, abdominal pain/discomfort (females): 58% | Overall responder rate, abnormal bowel habits (females): 53% | Overall responder rate, IBS symptoms (males): 59% | Overall responder rate, abdominal pain/discomfort (males): 61% | Overall responder rate, abnormal bowel habits (males): 55% | Overall responder rate, IBS symptoms (non-Caucasians): 66% | Overall responder rate, abdominal pain/discomfort (non-Caucasians): 66% | Overall responder rate, abnormal bowel habits (non-Caucasians): 70%

Reference: patent publication US20090176817A1, “Method of Treatment of Diarrhea-Predominant Irritable Bowel Syndrome in a Subject” (priority 2005, published 2009)
